One experiment has as its system THP-1 cells. Description: THP-1 soluble protein assay, soluble TNF-α (ELISA). Format: cell-based, human. The following applies: for inhibition at 3 µM: Homo sapiens, THP-1, 3 μM, read-out: THP % Inhibition @ 3 μM. In general terms: ELISA stands for enzyme-linked immunosorbent assay.
The next experiment deals with MMP-9 (Homo sapiens, UniProt P14780). Nature of the experiment: MMP-9 inhibition (thiopeptide or fluorescent peptide substrate). The class given is biochemical.
Experiment [1] addresses TNF-α converting enzyme (TACE) (Homo sapiens, UniProt P78536). Nature of the experiment: TACE inhibition (fluorescent peptidyl substrate). The following applies: read-out: TACE IC50. The class given is biochemical.
For a further experiment, the target named is T1, MMP-1 (Homo sapiens, UniProt P03956).
T1 sequence (P03956 100-469): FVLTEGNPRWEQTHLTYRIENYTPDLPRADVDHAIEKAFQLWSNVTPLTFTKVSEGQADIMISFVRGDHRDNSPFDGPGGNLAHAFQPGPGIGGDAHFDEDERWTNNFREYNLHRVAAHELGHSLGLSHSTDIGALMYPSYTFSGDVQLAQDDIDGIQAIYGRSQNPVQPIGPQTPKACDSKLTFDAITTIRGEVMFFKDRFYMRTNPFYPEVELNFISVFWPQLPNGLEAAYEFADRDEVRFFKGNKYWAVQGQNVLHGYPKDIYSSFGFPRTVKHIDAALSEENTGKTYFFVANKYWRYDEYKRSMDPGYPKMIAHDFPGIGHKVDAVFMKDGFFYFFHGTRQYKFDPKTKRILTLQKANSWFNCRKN
Nature of the experiment: MMP-1 inhibition (thiopeptide or fluorescent peptide substrate). The class given is biochemical.

In another experiment the target is MMP-13 (Homo sapiens, UniProt P45452). Nature of the experiment: MMP-13 inhibition (thiopeptide or fluorescent peptide substrate). The class given is biochemical.

Read-outs that look alike come from different tables or passages of the source.

TNF-α converting enzyme (TACE), sequence (P78536 215-824, species assumed): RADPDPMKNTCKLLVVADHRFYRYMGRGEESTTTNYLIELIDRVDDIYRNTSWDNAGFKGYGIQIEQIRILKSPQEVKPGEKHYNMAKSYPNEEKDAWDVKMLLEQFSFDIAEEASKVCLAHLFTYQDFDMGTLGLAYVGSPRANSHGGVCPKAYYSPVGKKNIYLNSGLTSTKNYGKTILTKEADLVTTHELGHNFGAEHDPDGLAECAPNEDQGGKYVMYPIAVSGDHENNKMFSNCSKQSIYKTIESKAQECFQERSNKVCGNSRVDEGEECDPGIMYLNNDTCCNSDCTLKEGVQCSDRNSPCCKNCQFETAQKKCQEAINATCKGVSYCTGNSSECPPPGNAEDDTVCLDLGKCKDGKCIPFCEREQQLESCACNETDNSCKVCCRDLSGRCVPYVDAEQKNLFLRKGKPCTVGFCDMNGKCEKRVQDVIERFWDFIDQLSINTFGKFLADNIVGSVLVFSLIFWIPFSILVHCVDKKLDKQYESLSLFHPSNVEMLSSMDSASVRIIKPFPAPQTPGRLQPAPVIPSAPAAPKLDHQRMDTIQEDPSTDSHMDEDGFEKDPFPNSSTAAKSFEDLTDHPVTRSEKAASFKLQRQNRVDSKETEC
MMP-9, sequence (P14780 94-707): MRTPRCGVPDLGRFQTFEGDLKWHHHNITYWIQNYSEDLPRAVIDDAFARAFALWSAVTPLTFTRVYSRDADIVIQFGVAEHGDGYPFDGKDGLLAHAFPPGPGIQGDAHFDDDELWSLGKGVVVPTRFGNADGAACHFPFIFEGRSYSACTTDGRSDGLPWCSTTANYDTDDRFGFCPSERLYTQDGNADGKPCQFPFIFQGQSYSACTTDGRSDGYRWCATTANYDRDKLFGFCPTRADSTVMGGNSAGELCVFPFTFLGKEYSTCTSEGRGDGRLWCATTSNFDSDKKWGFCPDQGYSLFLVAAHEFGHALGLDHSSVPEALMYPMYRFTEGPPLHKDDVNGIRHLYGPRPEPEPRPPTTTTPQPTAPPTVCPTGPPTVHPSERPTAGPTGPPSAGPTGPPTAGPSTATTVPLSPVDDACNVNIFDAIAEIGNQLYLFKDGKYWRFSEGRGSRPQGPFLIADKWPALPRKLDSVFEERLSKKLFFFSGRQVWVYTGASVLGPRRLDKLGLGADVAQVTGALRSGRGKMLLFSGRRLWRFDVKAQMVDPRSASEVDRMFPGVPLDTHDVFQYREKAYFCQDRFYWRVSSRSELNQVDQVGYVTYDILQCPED
Method for MMP-13: The enzyme activity is measured by the rate of the color increase. The thiopeptide substrate is made up fresh as a 20 mM stock in 100% DMSO and the DTNB is dissolved in 100% DMSO as a 100 mM stock and stored in the dark at room temperature. Both the substrate and DTNB are diluted together to 1 mM with substrate buffer (50 mM HEPES pH 7.5, 5 mM CaCl2) before use. The stock of enzyme is diluted with buffer (50 mM HEPES, pH 7.5, 5 mM CaCl2, 0.02% Brij) to the desired final concentration.
Alternatively, a fluorescent peptide substrate is used. In this test procedure, the peptide substrate contains a fluorescent group and a quenching group. Upon cleavage of the substrate by an MMP, the fluorescence that is generated is quantitated on the fluorescence plate reader. The assay is run in HCBC assay buffer (50 mM HEPES, pH 7.0, 5 mM Ca^+2, 0.02% Brij, 0.5% Cysteine), with human recombinant MMP-1, MMP-9, or MMP-13. […] For the assay, substrate and enzymes are diluted in HCBC buffer to the desired concentrations. Compounds are added to the 96 well plate containing enzyme and the reaction is started by the addition of substrate.
For either the thiopeptide or fluorescent peptide test procedures, the slope of the line is calculated and represents the reaction rate. The linearity of the reaction rate is confirmed (r^2>0.85). The mean (x±sem) of the control rate is calculated and compared for statistical significance (p<0.05) with drug-treated rates using Dunnett's multiple comparison test.
Method for THP-1 cells: Each vial of cells are cultured for about two weeks prior to being used for an assay and then are used for only 4 to 6 weeks to screen compounds.
Cell exposure to DMSO was limited to 0.1% final concentration. […] Plates are placed into an incubator set at 5% CO2 and at 37° C. After 4 hours of incubation, 300 ml/well of tissue culture supernatant (TCS) is removed for use in an TNF-α ELISA.
Percent change in each soluble protein evaluated from the “vehicle positive control” was calculated for each compound concentration with the following formula:
% Change=pg/ml (compound)−pg/ml (veh pos control)/(veh pos control)−pg/ml (veh neg control)×100
For the soluble protein (TNF-α, p75/80, p55/60, IL-8) studies under stimulated conditions, the mean pg/ml of duplicate wells were determined and the results expressed as percent change from “vehicle positive control”.

For the compound “2-[[4-Butynyloxy-phenylsulfonyl]-amino]-N-hydroxy-3-(pyridinylthio)propanamide [Example 169]”, in the experiment on THP-1 cells (THP-1 cells), the “THP % Inhibition @ 3 μM” value was 77%. The IC50 on MMP-9 (read-out: MMP-9 IC50) turned out to be 0.16 µM; in experiment [1] it was 0.0029 µM; at MMP-1 (read-out: MMP-1 IC50), 1.91 µM; on MMP-13 (read-out: MMP-13 IC50), 0.028 µM.

For the compound `CC#CCOc1ccc(S(=O)(=O)NC(C(=O)NO)C(C)C)cc1` (stereo not shown) [Example 27, 2-(4-but-2-ynyloxy-Benzenesulfonylamino)-N-hydroxy-3-methyl-butyramide], in the experiment with THP-1 cells (THP-1 cells), the inhibition at 3 µM was found to be 75%. Further, the 50% inhibitory concentration (IC50) against MMP-9 (MMP-9 IC50) turned out to be 0.042 µM; in experiment [1], 0.032 µM; against MMP-1 (MMP-1 IC50) it was 2.96 µM; against MMP-13 (MMP-13 IC50) it was 0.018 µM.

For `CC#CCOc1ccc(S(=O)(=O)NC(C)C(=O)NO)cc1` (stereo not shown) [Example 30, 2-(4-but-2-ynyloxy-Benzenesulfonylamino)-N-hydroxy-propionamide], in the experiment with THP-1 cells (THP-1 cells), the inhibition at 3 µM turned out to be 60%. The 50% inhibitory concentration (IC50) came to 0.262 µM at MMP-9 (read-out: MMP-9 IC50), 0.006 µM in experiment [1], 4.39 µM on MMP-1 (read-out: MMP-1 IC50) and 0.04 µM on MMP-13 (read-out: MMP-13 IC50).

As to `CC1(C)SCCN(S(=O)(=O)c2ccc(OCC#CCO)cc2)C1C(=O)NO` (stereo not shown) [Example 61, 4-[4-(4-Hydroxy-but-2-ynyloxy)-benzenesulfonyl]-2,2-dimethyl-thiomorpholine-3-carboxylic Acid Hydroxyamide], the inhibition at 3 µM with THP-1 cells (Table 10) worked out at 89%. For the same compound, the 50% inhibitory concentration (IC50) turned out to be 0.07 µM against MMP-9 (MMP-9 IC50, Table 10); 0.04 µM in experiment [1] (Table 10); 0.024 µM on MMP-1 (Table 10, read-out: MMP-1 IC50); 0.013 µM at MMP-13 (Table 10, read-out: MMP-13 IC50).

As for `CC#CCOc1ccc(S(=O)(=O)N[C@@H](C(=O)NO)[C@@H](C)CC)cc1` [Example 105, (2R,3S)-2-({[4-(2-Butynyloxy)phenyl]sulfonyl}amino)-N-hydroxy-3-methylpentanamide], the inhibition at 3 µM with THP-1 cells (THP-1 cells) is 87%. For the same compound, the concentration for half-maximal inhibition (IC50) at MMP-9 (read-out: MMP-9 IC50) was determined as 0.213 µM; in experiment [1], 0.0068 µM; at MMP-1 (read-out: MMP-1 IC50), 1.74 µM; on MMP-13 (read-out: MMP-13 IC50), 0.052 µM.

Turning to `CC#CCOc1ccc(S(=O)(=O)N[C@@H](C(=O)NO)C(C)(C)C)cc1` [Example 106, (2R)-2-({[4-(2-Butynyloxy)phenyl]sulfonyl)amino)-N-hydroxy-3,3-dimethylbutanamide], the inhibition at 3 µM in the experiment with THP-1 cells (THP-1 cells) came out at 91%. The concentration for half-maximal inhibition (IC50) is 0.224 µM at MMP-9 (read-out: MMP-9 IC50), 0.017 µM in experiment [1], 0.88 µM on MMP-1 (read-out: MMP-1 IC50) and 0.041 µM on MMP-13 (read-out: MMP-13 IC50).

Consider `CC#CCOc1ccc(S(=O)(=O)N(CC#CCN(CC)CC)C(C(=O)NO)C(C)C)cc1` (stereo not shown) [Example 126], for which the “THP % Inhibition @ 3 μM” value in the experiment on THP-1 cells (THP-1 cells) turned out to be 93%. Besides, the concentration for half-maximal inhibition (IC50) is 0.149 µM at MMP-9 (read-out: MMP-9 IC50), 0.073 µM in experiment [1], 0.212 µM on MMP-1 (read-out: MMP-1 IC50) and 0.036 µM on MMP-13 (read-out: MMP-13 IC50).

`CN(CC(=O)NO)S(=O)(=O)c1ccc(OCC#Cc2ccc(Cl)cc2)cc1` [Example 132]: the “THP % Inhibition @ 3 μM” value in the experiment with THP-1 cells (THP-1 cells) came to 27%. Also, the concentration for half-maximal inhibition (IC50) is 2.37 µM on MMP-9 (read-out: MMP-9 IC50), 1.1 µM in experiment [1], greater than 10 µM at MMP-1 (read-out: MMP-1 IC50) and 1.12 µM at MMP-13 (read-out: MMP-13 IC50).

As to `CC#CCOc1ccc(S(=O)(=O)N(C)C(C(=O)NO)C(C)(C)SCCN2CCCC2C(=O)OC)cc1` (stereo not shown) [Example 145], the “THP % Inhibition @ 3 μM” value in the experiment on THP-1 cells (THP-1 cells) is 83%. Moreover, the IC50 at MMP-9 (read-out: MMP-9 IC50) stood at 0.0071 µM; in experiment [1], 0.109 µM; at MMP-1 (read-out: MMP-1 IC50), 0.018 µM; at MMP-13 (read-out: MMP-13 IC50), 0.0025 µM.

Turning to `CC#CCOc1ccc(S(=O)(=O)N(C)[C@H](CSC)C(=O)NO)cc1` [Example 154], the inhibition at 3 µM in the experiment with THP-1 cells (THP-1 cells) came out at 90%. The IC50 on MMP-9 (read-out: MMP-9 IC50) amounted to 0.019 µM; in experiment [1], 0.0033 µM; at MMP-1 (read-out: MMP-1 IC50), 0.047 µM; on MMP-13 (read-out: MMP-13 IC50) it was 0.0054 µM.

`CC#CCOc1ccc(S(=O)(=O)NC(C(=O)NO)C(C)(C)SCc2cccnc2)cc1` (stereo not shown) [Example 161]: the “THP % Inhibition @ 3 μM” value with THP-1 cells (THP-1 cells) came out at 81%. Further, the half-inhibitory concentration (IC50) on MMP-9 (read-out: MMP-9 IC50) turned out to be 0.13 µM; in experiment [1], 0.0064 µM; at MMP-1 (read-out: MMP-1 IC50), 0.476 µM; on MMP-13 (read-out: MMP-13 IC50) it was 0.0079 µM.

By IC50 is commonly meant the concentration needed to halve the response being measured. One may read the inhibition as the percentage by which the read-out fell short of the control.
